Assay results from patent US20200384072A1, “THERAPY OF IONIZING RADIATION-INDUCED DISORDERS” (SCK-CEN, priority 2019, published 2020).

What was measured:
RBE4 cells [1] = assay: γ-H2AX counts after local 3×3 mm X-ray irradiation (irradiated and bystander zones), RBE4 cells; type: cell-based, rat; details: 1 Gy, 3 h post-irradiation, Cbx 50 μM, Gap26 161 μM, TAT-Gap19 200 μM, Xestospongin C 5 μM
Protocol: A defined area of the cell culture dishes were exposed to X-rays (1Gy or 20 Gy) by using a small animal radiation research platform (SARRP, Xstrahl, 220 kV, 13 mA), making use of a 3×3 mm collimator. Whole dish irradiation was done using a 10×10 cm broad-beam collimator, while localized Irradiation was performed with a 3×3 mm collimator. A Gafchromic RTQA2 film, with a sensitivity of 0.02 Gy, was placed underneath the cell dishes in order to delineate the irradiated zone.
Cells were fixed for 25 min with 4% formaldehyde (VWR) and blocked for 30 min with blocking buffer (5% normal goat serum, 1% bovine serum albumin (BSA), 0.2% Triton X-100 in PBS D+). Overnight incubation with primary antibody (1/500 anti-γ-H2AX in dilution buffer, 1/10 blocking buffer in PBS D+) was followed by a 1 h incubation with 1/400 XX-biotin-goat-anti-mouse antibody in dilution buffer, followed by a 1 h incubation with 1/400 streptavidin-alexa488 in PBS D+. Nuclei were stained with 1 μg/mL DAPI in PBS D+ for 10 min and cells were kept in PBS D+ supplemented with NaN3 at 4° C. All steps except the overnight incubation which was carried out at 4° C., were carried out at room temperature and cell cultures were rinsed thoroughly with PBS D+ between all incubation steps. Imaging was performed with an automated BD Pathway 435 imaging system (10× objective, 10×10 montage resulting in an overall image size of 8.5×6.5 mm). We then quantified the number of γ-H2AX-foci positive nuclei in the directly irradiated and bystander areas and expressed the count as a percentage relative to the number of nuclei and subtracted the percentage of background γ-H2AX signal in non-irradiated paired control cultures for each experiment. For counting γ-H2AX foci, images were thresholded to remove background pixel noise below the foci level. Where applicable, results were normalized against vehicle (bar charts with a 100% vehicle bar without statistical variability or a horizontal line).

RBE4 cells [2] = assay: Irradiation-induced ATP release, RBE4 cells; type: cell-based, rat; details: broad-beam 1 Gy, 5 min post-irradiation, BAPTA-AM 10 μM, NALC 1 mM, c-PTIO 100 μM
Protocol: ATP was measured using a luciferin-luciferase assay kit (Sigma-Aldrich) in combination with a luminometer plate reader (Victor3 1420 multi label counter; Perkin Elmer, Zaventem, Belgium).
Extracellular ATP measurements were initially carried out at different time-points post-irradiation, the effect of blockers on ATP release was tested at the 5 min post-irradiation time-point (time of maximum ATP release).

Substance: TAT-Gap19: connexin mimetic peptide, amino-acids 128-136 of the CL of Cx43 (SEQ ID NO: 2), Gap19 linked to TAT sequence; Cx43 hemichannel inhibitor (YGRKKRRQRRRKQIEIKKFK)
- γ-H2AX counts in the bystander zone (normalized to vehicle) (RBE4 cells [1]): significantly inhibited
- γ-H2AX counts in the irradiated zone (normalized to vehicle) (RBE4 cells [1]): significantly inhibited
- irradiation-induced ATP release (RBE4 cells [2]): inhibited
